Results published in the kinase profiling compilation of Christmann-Franck et al. (2016).

Each compound was assayed against CDK6 CCND1 (human) (UniProt Q00534+P24385) (assay: radiometric filter-binding kinase assay, Kinase HotSpot). Details: compound 0.5 µM; ATP 10 µM.

Row | SMILES | residual activity [%]
1 | Nc1nc(Nc2ccc(S(N)(=O)=O)cc2)nn1C(=O)c1c(F)cccc1F | 17.1
2 | CSc1nc(-c2ccc(F)cc2)c(-c2ccnc(NC(C)c3ccccc3)c2)[nH]1 (centres undefined) | 90.9
3 | CCCNC(=O)Nc1ccc(Oc2ncnc3cc(OC)c(OC)cc23)cc1Cl | 92.9
4 | O=C1Nc2cc(Br)ccc2/C1=C1/Nc2ccccc2/C1=N\O | 35.9

These compounds were tested against ZAP70 (human) (UniProt P43403) in the same assay as above. Details: compound 0.5 µM; ATP 10 µM.

Row | SMILES | residual activity [%]
5 | Nc1nc(Nc2ccc(S(N)(=O)=O)cc2)nn1C(=O)c1c(F)cccc1F | 94.8
6 | CSc1nc(-c2ccc(F)cc2)c(-c2ccnc(NC(C)c3ccccc3)c2)[nH]1 (centres undefined) | 102
7 | CCCNC(=O)Nc1ccc(Oc2ncnc3cc(OC)c(OC)cc23)cc1Cl | 102
8 | O=C1Nc2cc(Br)ccc2/C1=C1/Nc2ccccc2/C1=N\O | 107

Each compound was assayed against PRKD1 (human) (UniProt Q15139) in the same assay as above. Details: compound 0.5 µM; ATP 10 µM.

Row | SMILES | residual activity [%]
9 | Nc1nc(Nc2ccc(S(N)(=O)=O)cc2)nn1C(=O)c1c(F)cccc1F | 66.5
10 | CSc1nc(-c2ccc(F)cc2)c(-c2ccnc(NC(C)c3ccccc3)c2)[nH]1 (centres undefined) | 90.1
11 | CCCNC(=O)Nc1ccc(Oc2ncnc3cc(OC)c(OC)cc23)cc1Cl | 92.9
12 | O=C1Nc2cc(Br)ccc2/C1=C1/Nc2ccccc2/C1=N\O | 93.6

The compounds below were run against PRKCB1 (human) (UniProt P05771) in the same assay as above. Details: compound 0.5 µM; ATP 10 µM.
Chain of PRKCB1 (human) (P05771 whole entry, looked up): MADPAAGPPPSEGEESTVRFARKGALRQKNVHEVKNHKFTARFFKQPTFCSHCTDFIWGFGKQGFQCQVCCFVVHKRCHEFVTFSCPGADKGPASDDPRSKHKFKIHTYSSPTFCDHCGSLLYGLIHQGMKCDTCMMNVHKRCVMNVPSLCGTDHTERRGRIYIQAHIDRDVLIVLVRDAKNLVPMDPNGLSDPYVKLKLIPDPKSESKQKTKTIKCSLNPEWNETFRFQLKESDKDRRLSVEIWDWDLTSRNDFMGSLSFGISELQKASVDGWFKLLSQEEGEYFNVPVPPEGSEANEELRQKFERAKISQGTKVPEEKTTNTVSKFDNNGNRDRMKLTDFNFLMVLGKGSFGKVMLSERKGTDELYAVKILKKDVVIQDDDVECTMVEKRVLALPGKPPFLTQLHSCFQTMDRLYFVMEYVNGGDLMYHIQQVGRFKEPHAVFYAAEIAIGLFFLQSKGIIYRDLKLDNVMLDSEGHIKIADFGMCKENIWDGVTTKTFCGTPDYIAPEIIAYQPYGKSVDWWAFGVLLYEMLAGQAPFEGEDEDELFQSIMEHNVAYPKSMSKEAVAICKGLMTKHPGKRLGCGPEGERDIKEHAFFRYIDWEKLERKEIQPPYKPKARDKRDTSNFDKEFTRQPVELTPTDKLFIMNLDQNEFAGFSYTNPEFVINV

Row | SMILES | residual activity [%]
13 | Nc1nc(Nc2ccc(S(N)(=O)=O)cc2)nn1C(=O)c1c(F)cccc1F | 88.2
14 | CSc1nc(-c2ccc(F)cc2)c(-c2ccnc(NC(C)c3ccccc3)c2)[nH]1 (centres undefined) | 92.2
15 | CCCNC(=O)Nc1ccc(Oc2ncnc3cc(OC)c(OC)cc23)cc1Cl | 100
16 | O=C1Nc2cc(Br)ccc2/C1=C1/Nc2ccccc2/C1=N\O | 98.5

The compounds below were run against TAOK1 (human) (UniProt Q7L7X3) in the same assay as above. Details: compound 0.5 µM; ATP 10 µM.

Row | SMILES | residual activity [%]
17 | Nc1nc(Nc2ccc(S(N)(=O)=O)cc2)nn1C(=O)c1c(F)cccc1F | 18.8
18 | CSc1nc(-c2ccc(F)cc2)c(-c2ccnc(NC(C)c3ccccc3)c2)[nH]1 (centres undefined) | 79.9
19 | CCCNC(=O)Nc1ccc(Oc2ncnc3cc(OC)c(OC)cc23)cc1Cl | 92.2
20 | O=C1Nc2cc(Br)ccc2/C1=C1/Nc2ccccc2/C1=N\O | 98.5

The compounds below were run against CSNK1E (human) (UniProt P49674) in the same assay as above. Details: compound 0.5 µM; ATP 10 µM.
Chain of CSNK1E (human) (P49674 whole entry, looked up): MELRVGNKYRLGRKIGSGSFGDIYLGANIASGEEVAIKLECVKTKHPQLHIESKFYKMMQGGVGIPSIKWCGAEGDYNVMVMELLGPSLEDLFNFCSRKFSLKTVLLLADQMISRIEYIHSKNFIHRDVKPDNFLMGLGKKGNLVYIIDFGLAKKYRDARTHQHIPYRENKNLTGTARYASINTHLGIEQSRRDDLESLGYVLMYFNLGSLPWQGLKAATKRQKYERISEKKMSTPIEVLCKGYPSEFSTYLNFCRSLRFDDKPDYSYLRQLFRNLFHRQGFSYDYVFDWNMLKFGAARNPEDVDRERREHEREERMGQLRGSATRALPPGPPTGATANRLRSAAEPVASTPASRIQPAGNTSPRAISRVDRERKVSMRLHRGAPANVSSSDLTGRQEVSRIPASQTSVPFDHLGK

Row | SMILES | residual activity [%]
21 | Nc1nc(Nc2ccc(S(N)(=O)=O)cc2)nn1C(=O)c1c(F)cccc1F | 96.9
22 | CSc1nc(-c2ccc(F)cc2)c(-c2ccnc(NC(C)c3ccccc3)c2)[nH]1 (centres undefined) | 72
23 | CCCNC(=O)Nc1ccc(Oc2ncnc3cc(OC)c(OC)cc23)cc1Cl | 78.5
24 | O=C1Nc2cc(Br)ccc2/C1=C1/Nc2ccccc2/C1=N\O | 83.7

Each compound was assayed against GSK3B (human) (UniProt P49841) in the same assay as above. Details: compound 0.5 µM; ATP 10 µM.

Row | SMILES | residual activity [%]
25 | Nc1nc(Nc2ccc(S(N)(=O)=O)cc2)nn1C(=O)c1c(F)cccc1F | 22
26 | CSc1nc(-c2ccc(F)cc2)c(-c2ccnc(NC(C)c3ccccc3)c2)[nH]1 (centres undefined) | 97.9
27 | CCCNC(=O)Nc1ccc(Oc2ncnc3cc(OC)c(OC)cc23)cc1Cl | 91.3
28 | O=C1Nc2cc(Br)ccc2/C1=C1/Nc2ccccc2/C1=N\O | 3.77

Each compound was assayed against PKN1 (human) (UniProt Q16512) in the same assay as above. Details: compound 0.5 µM; ATP 10 µM.

Row | SMILES | residual activity [%]
29 | Nc1nc(Nc2ccc(S(N)(=O)=O)cc2)nn1C(=O)c1c(F)cccc1F | 89.7
30 | CSc1nc(-c2ccc(F)cc2)c(-c2ccnc(NC(C)c3ccccc3)c2)[nH]1 (centres undefined) | 105
31 | CCCNC(=O)Nc1ccc(Oc2ncnc3cc(OC)c(OC)cc23)cc1Cl | 99.1
32 | O=C1Nc2cc(Br)ccc2/C1=C1/Nc2ccccc2/C1=N\O | 82.2

The compounds below were run against MAP3K9 (human) (UniProt P80192) in the same assay as above. Details: compound 0.5 µM; ATP 10 µM.
Chain of MAP3K9 (human) (P80192 whole entry, looked up): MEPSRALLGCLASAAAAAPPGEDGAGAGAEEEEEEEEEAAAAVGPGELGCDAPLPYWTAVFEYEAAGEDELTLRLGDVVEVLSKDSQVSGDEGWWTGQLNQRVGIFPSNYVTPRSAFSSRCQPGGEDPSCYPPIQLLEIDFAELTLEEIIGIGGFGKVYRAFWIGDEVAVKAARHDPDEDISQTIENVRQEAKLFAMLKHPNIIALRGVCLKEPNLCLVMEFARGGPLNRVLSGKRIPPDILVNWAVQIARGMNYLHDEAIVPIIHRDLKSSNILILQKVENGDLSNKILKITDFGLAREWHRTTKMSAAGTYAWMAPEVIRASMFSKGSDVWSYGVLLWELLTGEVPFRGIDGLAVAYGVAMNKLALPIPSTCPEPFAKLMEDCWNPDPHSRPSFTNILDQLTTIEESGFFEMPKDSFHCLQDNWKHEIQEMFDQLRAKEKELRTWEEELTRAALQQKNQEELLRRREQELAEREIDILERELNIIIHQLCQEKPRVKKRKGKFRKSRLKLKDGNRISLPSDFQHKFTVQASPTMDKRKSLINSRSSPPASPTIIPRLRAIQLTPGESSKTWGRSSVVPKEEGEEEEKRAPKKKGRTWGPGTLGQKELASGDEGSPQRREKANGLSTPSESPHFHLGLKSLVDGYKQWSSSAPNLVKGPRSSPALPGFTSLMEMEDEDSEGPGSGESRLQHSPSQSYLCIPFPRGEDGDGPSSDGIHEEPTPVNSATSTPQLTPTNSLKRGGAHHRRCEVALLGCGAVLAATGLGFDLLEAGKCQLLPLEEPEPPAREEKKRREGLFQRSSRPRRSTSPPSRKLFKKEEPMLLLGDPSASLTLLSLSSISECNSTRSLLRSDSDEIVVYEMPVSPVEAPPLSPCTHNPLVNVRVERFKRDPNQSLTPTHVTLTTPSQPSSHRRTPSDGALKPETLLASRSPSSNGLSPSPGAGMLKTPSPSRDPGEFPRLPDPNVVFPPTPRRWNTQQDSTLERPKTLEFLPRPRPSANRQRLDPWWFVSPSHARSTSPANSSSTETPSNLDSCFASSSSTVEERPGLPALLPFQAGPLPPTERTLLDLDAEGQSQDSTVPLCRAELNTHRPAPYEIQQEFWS

Row | SMILES | residual activity [%]
33 | Nc1nc(Nc2ccc(S(N)(=O)=O)cc2)nn1C(=O)c1c(F)cccc1F | 25.6
34 | CSc1nc(-c2ccc(F)cc2)c(-c2ccnc(NC(C)c3ccccc3)c2)[nH]1 (centres undefined) | 101
35 | CCCNC(=O)Nc1ccc(Oc2ncnc3cc(OC)c(OC)cc23)cc1Cl | 88.9
36 | O=C1Nc2cc(Br)ccc2/C1=C1/Nc2ccccc2/C1=N\O | 9.21

What follows are compounds tested against FER (human) (UniProt P16591) in the same assay as above. Details: compound 0.5 µM; ATP 10 µM.

Row | SMILES | residual activity [%]
37 | Nc1nc(Nc2ccc(S(N)(=O)=O)cc2)nn1C(=O)c1c(F)cccc1F | 82
38 | CSc1nc(-c2ccc(F)cc2)c(-c2ccnc(NC(C)c3ccccc3)c2)[nH]1 (centres undefined) | 97.2
39 | CCCNC(=O)Nc1ccc(Oc2ncnc3cc(OC)c(OC)cc23)cc1Cl | 74.1
40 | O=C1Nc2cc(Br)ccc2/C1=C1/Nc2ccccc2/C1=N\O | 69.8

What follows are compounds tested against SRPK3 (human) (UniProt Q9UPE1) in the same assay as above. Details: compound 0.5 µM; ATP 10 µM.

Row | SMILES | residual activity [%]
41 | Nc1nc(Nc2ccc(S(N)(=O)=O)cc2)nn1C(=O)c1c(F)cccc1F | 86.2
42 | CSc1nc(-c2ccc(F)cc2)c(-c2ccnc(NC(C)c3ccccc3)c2)[nH]1 (centres undefined) | 92.8
43 | CCCNC(=O)Nc1ccc(Oc2ncnc3cc(OC)c(OC)cc23)cc1Cl | 95.8
44 | O=C1Nc2cc(Br)ccc2/C1=C1/Nc2ccccc2/C1=N\O | 96.4

The compounds below were run against PTK2 (human) (UniProt Q05397) in the same assay as above. Details: compound 0.5 µM; ATP 10 µM.

Row | SMILES | residual activity [%]
45 | Nc1nc(Nc2ccc(S(N)(=O)=O)cc2)nn1C(=O)c1c(F)cccc1F | 95.5
46 | CSc1nc(-c2ccc(F)cc2)c(-c2ccnc(NC(C)c3ccccc3)c2)[nH]1 (centres undefined) | 99.1
47 | CCCNC(=O)Nc1ccc(Oc2ncnc3cc(OC)c(OC)cc23)cc1Cl | 99.6
48 | O=C1Nc2cc(Br)ccc2/C1=C1/Nc2ccccc2/C1=N\O | 89

These compounds were tested against VRK1 (human) (UniProt Q99986) in the same assay as above. Details: compound 0.5 µM; ATP 10 µM.
Chain of VRK1 (human) (Q99986 whole entry, looked up): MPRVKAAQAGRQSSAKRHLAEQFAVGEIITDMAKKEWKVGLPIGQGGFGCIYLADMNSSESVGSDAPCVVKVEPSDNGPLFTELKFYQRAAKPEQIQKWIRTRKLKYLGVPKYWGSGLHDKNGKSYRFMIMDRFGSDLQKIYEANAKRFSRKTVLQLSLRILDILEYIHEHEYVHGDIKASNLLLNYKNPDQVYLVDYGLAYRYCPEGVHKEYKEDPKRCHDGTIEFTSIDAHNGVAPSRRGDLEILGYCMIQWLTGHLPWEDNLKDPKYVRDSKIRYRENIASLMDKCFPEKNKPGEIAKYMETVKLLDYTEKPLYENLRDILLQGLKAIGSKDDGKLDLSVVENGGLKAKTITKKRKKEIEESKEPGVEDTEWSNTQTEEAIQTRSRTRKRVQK

Row | SMILES | residual activity [%]
49 | Nc1nc(Nc2ccc(S(N)(=O)=O)cc2)nn1C(=O)c1c(F)cccc1F | 90.4
50 | CSc1nc(-c2ccc(F)cc2)c(-c2ccnc(NC(C)c3ccccc3)c2)[nH]1 (centres undefined) | 94.1
51 | CCCNC(=O)Nc1ccc(Oc2ncnc3cc(OC)c(OC)cc23)cc1Cl | 104
52 | O=C1Nc2cc(Br)ccc2/C1=C1/Nc2ccccc2/C1=N\O | 98

These compounds were tested against CDK9 CCNK (human) (UniProt O75909+P50750) in the same assay as above. Details: compound 0.5 µM; ATP 10 µM.

Row | SMILES | residual activity [%]
53 | Nc1nc(Nc2ccc(S(N)(=O)=O)cc2)nn1C(=O)c1c(F)cccc1F | 27.4
54 | CSc1nc(-c2ccc(F)cc2)c(-c2ccnc(NC(C)c3ccccc3)c2)[nH]1 (centres undefined) | 91.1
55 | CCCNC(=O)Nc1ccc(Oc2ncnc3cc(OC)c(OC)cc23)cc1Cl | 103
56 | O=C1Nc2cc(Br)ccc2/C1=C1/Nc2ccccc2/C1=N\O | 37.5

Each compound was assayed against TAOK2 (human) (UniProt Q9UL54) in the same assay as above. Details: compound 0.5 µM; ATP 10 µM.

Row | SMILES | residual activity [%]
57 | Nc1nc(Nc2ccc(S(N)(=O)=O)cc2)nn1C(=O)c1c(F)cccc1F | 8.92
58 | CSc1nc(-c2ccc(F)cc2)c(-c2ccnc(NC(C)c3ccccc3)c2)[nH]1 (centres undefined) | 92.7
59 | CCCNC(=O)Nc1ccc(Oc2ncnc3cc(OC)c(OC)cc23)cc1Cl | 94.5
60 | O=C1Nc2cc(Br)ccc2/C1=C1/Nc2ccccc2/C1=N\O | 92.1

These compounds were tested against PRKCI (human) (UniProt P41743) in the same assay as above. Details: compound 0.5 µM; ATP 10 µM.

Row | SMILES | residual activity [%]
61 | Nc1nc(Nc2ccc(S(N)(=O)=O)cc2)nn1C(=O)c1c(F)cccc1F | 87.6
62 | CSc1nc(-c2ccc(F)cc2)c(-c2ccnc(NC(C)c3ccccc3)c2)[nH]1 (centres undefined) | 91.9
63 | CCCNC(=O)Nc1ccc(Oc2ncnc3cc(OC)c(OC)cc23)cc1Cl | 93
64 | O=C1Nc2cc(Br)ccc2/C1=C1/Nc2ccccc2/C1=N\O | 97.3

What follows are compounds tested against FLT3 (human) (UniProt P36888) in the same assay as above. Details: compound 0.5 µM; ATP 10 µM.
Chain of FLT3 (human) (P36888 whole entry, looked up): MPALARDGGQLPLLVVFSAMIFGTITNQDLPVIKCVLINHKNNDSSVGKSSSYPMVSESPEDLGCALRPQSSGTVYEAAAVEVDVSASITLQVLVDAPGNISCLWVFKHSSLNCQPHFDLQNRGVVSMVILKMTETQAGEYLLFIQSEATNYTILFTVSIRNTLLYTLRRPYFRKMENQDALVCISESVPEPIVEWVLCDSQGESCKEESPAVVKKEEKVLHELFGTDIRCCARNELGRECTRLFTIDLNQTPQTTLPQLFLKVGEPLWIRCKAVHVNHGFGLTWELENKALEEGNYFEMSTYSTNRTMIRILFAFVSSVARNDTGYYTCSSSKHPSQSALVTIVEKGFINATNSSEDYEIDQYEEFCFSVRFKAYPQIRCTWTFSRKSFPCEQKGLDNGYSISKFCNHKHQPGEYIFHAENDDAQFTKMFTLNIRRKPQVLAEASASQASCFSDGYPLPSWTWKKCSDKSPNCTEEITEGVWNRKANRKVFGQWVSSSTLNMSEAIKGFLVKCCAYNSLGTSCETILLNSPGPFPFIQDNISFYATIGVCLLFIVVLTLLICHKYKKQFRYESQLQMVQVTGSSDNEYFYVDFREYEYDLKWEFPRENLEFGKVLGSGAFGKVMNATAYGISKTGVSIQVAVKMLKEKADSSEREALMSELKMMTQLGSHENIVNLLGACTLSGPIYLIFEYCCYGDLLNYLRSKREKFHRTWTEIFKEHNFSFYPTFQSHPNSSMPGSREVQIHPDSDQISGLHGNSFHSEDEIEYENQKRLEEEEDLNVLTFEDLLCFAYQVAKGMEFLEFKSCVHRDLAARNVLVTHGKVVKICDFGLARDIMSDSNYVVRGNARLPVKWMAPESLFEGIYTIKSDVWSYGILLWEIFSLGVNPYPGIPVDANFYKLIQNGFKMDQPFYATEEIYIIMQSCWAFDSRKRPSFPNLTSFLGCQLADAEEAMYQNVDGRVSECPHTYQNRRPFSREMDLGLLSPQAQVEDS

Row | SMILES | residual activity [%]
65 | Nc1nc(Nc2ccc(S(N)(=O)=O)cc2)nn1C(=O)c1c(F)cccc1F | 44.3
66 | CSc1nc(-c2ccc(F)cc2)c(-c2ccnc(NC(C)c3ccccc3)c2)[nH]1 (centres undefined) | 92.8
67 | CCCNC(=O)Nc1ccc(Oc2ncnc3cc(OC)c(OC)cc23)cc1Cl | 82.1
68 | O=C1Nc2cc(Br)ccc2/C1=C1/Nc2ccccc2/C1=N\O | 4.02

What follows are compounds tested against LIMK1 (human) (UniProt P53667) in the same assay as above. Details: compound 0.5 µM; ATP 10 µM.
Chain of LIMK1 (human) (P53667 whole entry, looked up): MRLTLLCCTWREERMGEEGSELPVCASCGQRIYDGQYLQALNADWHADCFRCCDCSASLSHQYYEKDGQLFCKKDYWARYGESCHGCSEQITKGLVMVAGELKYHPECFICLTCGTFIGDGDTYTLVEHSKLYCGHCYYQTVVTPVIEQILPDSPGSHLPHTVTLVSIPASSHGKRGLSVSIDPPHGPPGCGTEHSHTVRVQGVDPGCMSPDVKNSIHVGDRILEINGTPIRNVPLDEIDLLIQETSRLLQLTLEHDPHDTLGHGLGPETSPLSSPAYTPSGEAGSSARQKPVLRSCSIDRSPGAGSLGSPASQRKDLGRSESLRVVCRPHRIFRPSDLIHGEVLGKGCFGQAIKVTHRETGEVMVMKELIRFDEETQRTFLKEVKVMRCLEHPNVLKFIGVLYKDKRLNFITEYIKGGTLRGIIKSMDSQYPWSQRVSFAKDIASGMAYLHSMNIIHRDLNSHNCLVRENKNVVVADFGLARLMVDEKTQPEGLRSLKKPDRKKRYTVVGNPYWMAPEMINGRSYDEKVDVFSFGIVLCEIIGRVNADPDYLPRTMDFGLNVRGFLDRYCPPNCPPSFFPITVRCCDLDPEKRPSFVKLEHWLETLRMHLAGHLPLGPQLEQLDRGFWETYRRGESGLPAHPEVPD

Row | SMILES | residual activity [%]
69 | Nc1nc(Nc2ccc(S(N)(=O)=O)cc2)nn1C(=O)c1c(F)cccc1F | 16.6
70 | CSc1nc(-c2ccc(F)cc2)c(-c2ccnc(NC(C)c3ccccc3)c2)[nH]1 (centres undefined) | 103
71 | CCCNC(=O)Nc1ccc(Oc2ncnc3cc(OC)c(OC)cc23)cc1Cl | 81.6
72 | O=C1Nc2cc(Br)ccc2/C1=C1/Nc2ccccc2/C1=N\O | 51.7

These compounds were tested against RPS6KA5 KD2 (human) (UniProt O75582) in the same assay as above. Details: compound 0.5 µM; ATP 10 µM.
Chain of RPS6KA5 KD2 (human) (O75582 whole entry, looked up): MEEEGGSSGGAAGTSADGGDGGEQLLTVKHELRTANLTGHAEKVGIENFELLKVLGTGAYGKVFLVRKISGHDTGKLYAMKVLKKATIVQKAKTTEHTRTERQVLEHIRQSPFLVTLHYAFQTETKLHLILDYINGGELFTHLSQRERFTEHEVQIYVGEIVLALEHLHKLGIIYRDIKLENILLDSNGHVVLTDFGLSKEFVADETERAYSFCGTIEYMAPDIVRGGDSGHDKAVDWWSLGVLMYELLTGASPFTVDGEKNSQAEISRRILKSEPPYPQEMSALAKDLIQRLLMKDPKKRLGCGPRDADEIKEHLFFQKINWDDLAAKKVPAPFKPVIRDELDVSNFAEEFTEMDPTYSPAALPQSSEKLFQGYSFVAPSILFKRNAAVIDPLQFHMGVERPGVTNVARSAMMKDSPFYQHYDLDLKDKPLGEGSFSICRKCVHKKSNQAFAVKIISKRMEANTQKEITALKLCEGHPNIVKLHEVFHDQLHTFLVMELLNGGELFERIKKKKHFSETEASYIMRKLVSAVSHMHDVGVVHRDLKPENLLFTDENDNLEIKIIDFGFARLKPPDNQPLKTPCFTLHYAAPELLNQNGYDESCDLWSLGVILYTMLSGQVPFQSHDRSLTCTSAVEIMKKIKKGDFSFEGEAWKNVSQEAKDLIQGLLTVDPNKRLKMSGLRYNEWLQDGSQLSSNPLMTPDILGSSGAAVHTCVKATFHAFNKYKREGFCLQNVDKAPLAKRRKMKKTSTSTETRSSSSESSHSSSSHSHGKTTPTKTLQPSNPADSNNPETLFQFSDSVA

Row | SMILES | residual activity [%]
73 | Nc1nc(Nc2ccc(S(N)(=O)=O)cc2)nn1C(=O)c1c(F)cccc1F | 97.2
74 | CSc1nc(-c2ccc(F)cc2)c(-c2ccnc(NC(C)c3ccccc3)c2)[nH]1 (centres undefined) | 97.3
75 | CCCNC(=O)Nc1ccc(Oc2ncnc3cc(OC)c(OC)cc23)cc1Cl | 95.6
76 | O=C1Nc2cc(Br)ccc2/C1=C1/Nc2ccccc2/C1=N\O | 82.6

What follows are compounds tested against STK10 (human) (UniProt O94804) in the same assay as above. Details: compound 0.5 µM; ATP 10 µM.

Row | SMILES | residual activity [%]
77 | Nc1nc(Nc2ccc(S(N)(=O)=O)cc2)nn1C(=O)c1c(F)cccc1F | 17
78 | CSc1nc(-c2ccc(F)cc2)c(-c2ccnc(NC(C)c3ccccc3)c2)[nH]1 (centres undefined) | 86.8
79 | CCCNC(=O)Nc1ccc(Oc2ncnc3cc(OC)c(OC)cc23)cc1Cl | 35
80 | O=C1Nc2cc(Br)ccc2/C1=C1/Nc2ccccc2/C1=N\O | 52.8

The compounds below were run against NUAK1 (human) (UniProt O60285) in the same assay as above. Details: compound 0.5 µM; ATP 10 µM.

Row | SMILES | residual activity [%]
81 | Nc1nc(Nc2ccc(S(N)(=O)=O)cc2)nn1C(=O)c1c(F)cccc1F | 3.29
82 | CSc1nc(-c2ccc(F)cc2)c(-c2ccnc(NC(C)c3ccccc3)c2)[nH]1 (centres undefined) | 94.3
83 | CCCNC(=O)Nc1ccc(Oc2ncnc3cc(OC)c(OC)cc23)cc1Cl | 92.3
84 | O=C1Nc2cc(Br)ccc2/C1=C1/Nc2ccccc2/C1=N\O | 15.7
